In PubChem BioAssay AID1963974 (Molecular Pharmacology Branch, DTP, NCI, 2024):
Several values for one entry are separate records, joined by “and”; a condition that tells them apart may be missing. Equal values may be shown once.

Test system: 648629-189-R-J1-PDC spheroids with HUVEC/MSC, viability
Assay: Anticancer human tumor 648629-189-R-J1-PDC patient-derived bladder carcinoma cell line growth inhibition [PI3K]
Settings: for viability, T/C: stronger effect = lower value
Procedure, shortened: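 Spheroid viability read-out. Co-cultures contained the tumor line plus HUVEC and human MSCs. Each agent was paired with a PI3K inhibitor (inavolisib, alpelisib, duvelisib, copanlisib) across half-log dilutions starting at clinical Cmax, or at 10 microM when Cmax was unknown.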

[1] = curve of first compound, second compound 0.00316 µM
[2] = curve of first compound, second compound 0.01 µM
[3] = curve of first compound, second compound 0.0316 µM
[4] = curve of first compound, second compound 0.1 µM
[5] = curve of first compound, second compound 0.316 µM
[6] = curve of first compound, second compound 1 µM
[7] = second compound 0.00316 µM, first compound 0.000316 µM
[8] = second compound 0.00316 µM, first compound 0.001 µM
[9] = second compound 0.00316 µM, first compound 0.00316 µM
[10] = second compound 0.00316 µM, first compound 0.01 µM
[11] = second compound 0.00316 µM, first compound 0.0316 µM
[12] = second compound 0.00316 µM, first compound 0.1 µM
[13] = second compound 0.01 µM, first compound 0.000316 µM
[14] = second compound 0.01 µM, first compound 0.001 µM
[15] = second compound 0.01 µM, first compound 0.00316 µM
[16] = second compound 0.01 µM, first compound 0.01 µM
[17] = second compound 0.01 µM, first compound 0.0316 µM
[18] = second compound 0.01 µM, first compound 0.1 µM
[19] = second compound 0.0316 µM, first compound 0.000316 µM
[20] = second compound 0.0316 µM, first compound 0.001 µM
[21] = second compound 0.0316 µM, first compound 0.00316 µM
[22] = second compound 0.0316 µM, first compound 0.01 µM
[23] = second compound 0.0316 µM, first compound 0.0316 µM
[24] = second compound 0.0316 µM, first compound 0.1 µM
[25] = second compound 0.1 µM, first compound 0.000316 µM
[26] = second compound 0.1 µM, first compound 0.001 µM
[27] = second compound 0.1 µM, first compound 0.00316 µM
[28] = second compound 0.1 µM, first compound 0.01 µM
[29] = second compound 0.1 µM, first compound 0.0316 µM
[30] = second compound 0.1 µM, first compound 0.1 µM
[31] = second compound 0.316 µM, first compound 0.000316 µM
[32] = second compound 0.316 µM, first compound 0.001 µM
[33] = second compound 0.316 µM, first compound 0.00316 µM
[34] = second compound 0.316 µM, first compound 0.01 µM
[35] = second compound 0.316 µM, first compound 0.0316 µM
[36] = second compound 0.316 µM, first compound 0.1 µM
[37] = second compound 1 µM, first compound 0.000316 µM
[38] = second compound 1 µM, first compound 0.001 µM
[39] = second compound 1 µM, first compound 0.00316 µM
[40] = second compound 1 µM, first compound 0.01 µM
[41] = second compound 1 µM, first compound 0.0316 µM
[42] = second compound 1 µM, first compound 0.1 µM
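Further: spheroids exposed to agents for seven days before reading.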
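Wherever viability, T/C is given: percent of vehicle control luminescence where 100% = DMSO treated spheroids.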

CC(=O)c1c(C)c2cnc(Nc3ccc(N4CCNCC4)cn3)nc2n(C2CCCC2)c1=O + COc1c(OCCCN2CCOCC2)ccc2c3n(c(=NC(=O)c4cnc(N)nc4)nc12)CCN3
IC50 [1]: > 0.1 µM
IC50 [2]: > 0.1 µM
IC50 [3]: > 0.1 µM
IC50 [4]: > 0.1 µM
IC50 [5]: < 0.000316 µM
IC50 [6]: < 0.000316 µM
viability, T/C [7]: 106%
viability, T/C [8]: 98.1%
viability, T/C [9]: 99.6%
viability, T/C [10]: 101%
viability, T/C [11]: 117%
viability, T/C [12]: 98.9%
viability, T/C [13]: 98.2%
viability, T/C [14]: 110%
viability, T/C [15]: 99.8%
viability, T/C [16]: 101%
viability, T/C [17]: 103%
viability, T/C [18]: 107%
viability, T/C [19]: 89.7%
viability, T/C [20]: 100%
viability, T/C [21]: 106%
viability, T/C [22]: 99.1%
viability, T/C [23]: 89.4%
viability, T/C [24]: 94.2%
viability, T/C [25]: 68.6%
viability, T/C [26]: 66.8%
viability, T/C [27]: 64.8%
viability, T/C [28]: 61%
viability, T/C [29]: 70.1%
viability, T/C [30]: 68.4%
viability, T/C [31]: 23.5%
viability, T/C [32]: 23.2%
viability, T/C [33]: 22.4%
viability, T/C [34]: 26.3%
viability, T/C [35]: 27.6%
viability, T/C [36]: 19.6%
viability, T/C [37]: 3.72%
viability, T/C [38]: 3.62%
viability, T/C [39]: 3.08%
viability, T/C [40]: 4%
viability, T/C [41]: 4.37%
viability, T/C [42]: 2.62%

C=CC(=O)N1CCN(c2nc(=O)n(-c3c(C)ccnc3C(C)C)c3nc(-c4c(O)cccc4F)c(F)cc23)C(C)C1 (stereo not drawn)
viability, T/C (compound 0.0316 µM): 112% [middle of 4 runs]
viability, T/C (compound 0.1 µM): 103% (2×) and 102% and 99.5%
viability, T/C (compound 0.316 µM): 110% and 107% (2×) and 100%
viability, T/C (compound 1 µM): 109% [middle of 4 runs]
viability, T/C (compound 3.16 µM): 105% [middle of 4 runs]
viability, T/C (compound 10 µM): 96% [middle of 4 runs]
IC50 (curve of compound): > 10 µM

CC1(C)CCC(Nc2ncc(C(F)(F)F)c(-c3c[nH]c4c(P(C)(C)=O)c(C#N)ccc34)n2)CN1 (stereo not drawn) + CC(Nc1ncnc2nc[nH]c12)c1cc2cccc(Cl)c2c(=O)n1-c1ccccc1
IC50 [3]: < 0.0316 µM
IC50 [4]: < 0.0316 µM
IC50 [5]: < 0.0316 µM
IC50 [6]: < 0.0316 µM
IC50 (curve of first compound, second compound 3.16 µM): < 0.0316 µM
IC50 (curve of first compound, second compound 10 µM): < 0.0316 µM
viability, T/C [23]: 35.1%
viability, T/C [24]: 29%
viability, T/C (second compound 0.0316 µM, first compound 0.316 µM): 35.4%
viability, T/C (second compound 0.0316 µM, first compound 1 µM): 35.2%
viability, T/C (second compound 0.0316 µM, first compound 3.16 µM): 43%
viability, T/C (second compound 0.0316 µM, first compound 10 µM): 11.7%
viability, T/C [29]: 36.7%
viability, T/C [30]: 33.5%
viability, T/C (second compound 0.1 µM, first compound 0.316 µM): 28.3%
viability, T/C (second compound 0.1 µM, first compound 1 µM): 36%
viability, T/C (second compound 0.1 µM, first compound 3.16 µM): 39.6%
viability, T/C (second compound 0.1 µM, first compound 10 µM): 10.8%
viability, T/C [35]: 32%
viability, T/C [36]: 29.4%
viability, T/C (second compound 0.316 µM, first compound 0.316 µM): 29.1%
viability, T/C (second compound 0.316 µM, first compound 1 µM): 31.8%
viability, T/C (second compound 0.316 µM, first compound 3.16 µM): 39.1%
viability, T/C (second compound 0.316 µM, first compound 10 µM): 11.5%
viability, T/C [41]: 30.6%
viability, T/C [42]: 32.4%
viability, T/C (second compound 1 µM, first compound 0.316 µM): 29.8%
viability, T/C (second compound 1 µM, first compound 1 µM): 31.6%
viability, T/C (second compound 1 µM, first compound 3.16 µM): 42%
viability, T/C (second compound 1 µM, first compound 10 µM): 10.1%
viability, T/C (second compound 3.16 µM, first compound 0.0316 µM): 34%
viability, T/C (second compound 3.16 µM, first compound 0.1 µM): 29.2%
viability, T/C (second compound 3.16 µM, first compound 0.316 µM): 28.9%
viability, T/C (second compound 3.16 µM, first compound 1 µM): 30.7%
viability, T/C (second compound 3.16 µM, first compound 3.16 µM): 36.2%
viability, T/C (second compound 3.16 µM, first compound 10 µM): 7.47%
viability, T/C (second compound 10 µM, first compound 0.0316 µM): 39.7%
viability, T/C (second compound 10 µM, first compound 0.1 µM): 32%
viability, T/C (second compound 10 µM, first compound 0.316 µM): 33.3%
viability, T/C (second compound 10 µM, first compound 1 µM): 30.2%
viability, T/C (second compound 10 µM, first compound 3.16 µM): 34.7%
viability, T/C (second compound 10 µM, first compound 10 µM): 4.52%

Cn1ncnc1[C@H]1c2n[nH]c(=O)c3cc(F)cc(c23)N[C@@H]1c1ccc(F)cc1 + COc1c(OCCCN2CCOCC2)ccc2c3n(c(=NC(=O)c4cnc(N)nc4)nc12)CCN3
IC50 [1]: > 0.1 µM
IC50 [2]: > 0.1 µM
IC50 [3]: > 0.1 µM
IC50 [4]: 0.0322 µM
IC50 [5]: < 0.000316 µM
IC50 [6]: < 0.000316 µM
viability, T/C [7]: 100%
viability, T/C [8]: 92.2%
viability, T/C [9]: 106%
viability, T/C [10]: 88.5%
viability, T/C [11]: 83.4%
viability, T/C [12]: 59.3%
viability, T/C [13]: 92.3%
viability, T/C [14]: 92.1%
viability, T/C [15]: 88.7%
viability, T/C [16]: 93.6%
viability, T/C [17]: 86.5%
viability, T/C [18]: 60.6%
viability, T/C [19]: 88.5%
viability, T/C [20]: 93.3%
viability, T/C [21]: 85.4%
viability, T/C [22]: 73.5%
viability, T/C [23]: 65.6%
viability, T/C [24]: 55.3%
viability, T/C [25]: 66.7%
viability, T/C [26]: 60.7%
viability, T/C [27]: 57.5%
viability, T/C [28]: 57.2%
viability, T/C [29]: 51.8%
viability, T/C [30]: 41%
viability, T/C [31]: 20.3%
viability, T/C [32]: 19.2%
viability, T/C [33]: 18.7%
viability, T/C [34]: 16.4%
viability, T/C [35]: 20%
viability, T/C [36]: 15.4%
viability, T/C [37]: 4.4%
viability, T/C [38]: 3.64%
viability, T/C [39]: 3.49%
viability, T/C [40]: 3.59%
viability, T/C [41]: 3.84%
viability, T/C [42]: 2.43%
